Patent US12594267B2, “Capsid inhibitors for the treatment of HIV” (Gilead Sciences, Inc., priority 2018, dated 2026)
Read-outs that look alike come from different tables or passages of the source.

Legend:
[1] = Plasma PK after single oral administration in solution, rat; type: in vivo, Sprague-Dawley Rat
Experimental: (§1) An oral formulation containing a compound of Formula (Ia) in […], 20% propylene glycol, 45 PEG 300, and 30% 0.01 N HCl was prepared. The formulation was orally administered to male rat, dog, cynomolgus monkey, and rhesus monkey according to the doses shown in Table 8 below.

[2] = Plasma PK after single oral administration in solution, dog; type: in vivo, Beagle Dog
Experimental: as §1

[3] = IV AUC used as reference for % F of capsules; set-up: species or system beagle dogs; details: beagle, dog, in vivo; IV at 1 mg/kg; reference for % F in Table 9; read-out: average IV AUC0-72h
PI-resistant viruses = experiment: Cytopathic antiviral assay in MT-2 cells, PI-resistant viruses; type: cell-based, HIV-1; details: for EC50 Fold-Change: Mutant/WT (HXB2D) EC50 ratio, mean ± s.d. of three experiments
Experimental: The antiviral activity of the compound of Formula (a) was tested against a panel of known HIV-1 mutants resistant to HIV PIs (ATV and DRV), NRTIs (TFV and FTC), NNRTIs (RPV and EFV) or INSTIs (RAL, EVG and DTG) using a cytopathic antiviral assay in MT-2 cells. The compound of Formula (Ia) was fully active against all tested mutants resistant to PIs (Table 11), NRTIs (Table 12), NNRTIs (Table 13) or INSTIs (Table 14).

NRTI-resistant viruses = type: cell-based, HIV-1; details: MT-2 cells; for EC50 Fold-Change: Mutant/WT (LAI) EC50 ratio, mean ± s.d. of three experiments
Experimental: The antiviral activity of the compound of Formula (a) was tested against a panel of known HIV-1 mutants resistant to HIV PIs (ATV and DRV), NRTIs (TFV and FTC), NNRTIs (RPV and EFV) or INSTIs (RAL, EVG and DTG) using a cytopathic antiviral assay in MT-2 cells.

[4] = male, Sprague-Dawley, plasma, rat, single oral 5.0 mg/kg, solution in 5% ethanol/20% propylene glycol/45% PEG 300/30% 0.01 N HCl, mean ± SD, n=3
[5] = male, beagle, plasma, dog, single oral 4.0 mg/kg, solution in 5% ethanol/20% propylene glycol/45% PEG 300/30% 0.01 N HCl, mean ± SD, n=3

## CC(C)(C#Cc1ccc(-c2ccc(Cl)c3c(NS(C)(=O)=O)nn(CC(F)(F)F)c23)c([C@H](Cc2cc(F)cc(F)c2)NC(=O)Cn2nc(C(F)(F)F)c3c2C(F)(F)[C@@H]2C[C@H]32)n1)S(C)(=O)=O [Formula (Ia), N—((S)-1-(3-(4-chloro-3-(methylsulfonamido)-1-(2,2,2-trifluoroethyl)-1H-indazol-7-yl)-6-(3-methyl-3-(methylsulfonyl)but-1-yn-1-yl)pyridin-2-yl)-2-(3,5-difluorophenyl)ethyl)-2-((3bS,4aR)-5,5-difluoro-3-(trifluoromethyl)-3b,4,4a,5-tetrahydro-1H-cyclopropa[3,4]cyclopenta[1,2-c]pyrazol-1-yl)acetamide]
[1]; male, Sprague-Dawley, plasma, rat, single oral 5.0 mg/kg, same solution, calculated based on AUC0-72h, mean ± SD, n=3, read-out: F (oral bioavailability)
  bioavailability: 21.7 ± 8.9%
[1]; [4]
  AUC(0-inf): 25200 ± 10200 µM·h
  Cmax: 336 ± 116 µM
  Tmax: 10 ± 3.5 h
[1]; male, Sprague-Dawley, plasma, rat, single oral 5.0 mg/kg, solution in 5% ethanol/20% propylene glycol/45% PEG 300/30% 0.01 N HCl, mean ± SD, n=3, read-out: AUC0-72h
  AUC(0-t): 13500 ± 3930 µM·h
[1]; rats, oral solution
  F % (bioavailability), in words: moderate
[2]; dogs, oral solution
  F % (bioavailability), in words: moderate
[2]; male, beagle, plasma, dog, single oral 4.0 mg/kg, same solution, calculated based on AUC0-72h, mean ± SD, n=3, read-out: F (oral bioavailability)
  bioavailability: 22.1 ± 8.4%
[2]; [5]
  AUC(0-inf): 16500 ± 10400 µM·h
  Cmax: 471 ± 203 µM
  Tmax: 10.7 ± 11.5 h
[2]; male, beagle, plasma, dog, single oral 4.0 mg/kg, solution in 5% ethanol/20% propylene glycol/45% PEG 300/30% 0.01 N HCl, mean ± SD, n=3, read-out: AUC0-72h
  AUC(0-t): 11400 ± 4320 µM·h
[3]
  AUC(0-t): 13.5 µM·h
PI-resistant viruses; G48V/V82A/L90M
  EC50 Fold-Change: 0.4 ± 0.2
PI-resistant viruses; G48V/V82S
  EC50 Fold-Change: 0.4 ± 0.1
PI-resistant viruses; I50V
  EC50 Fold-Change: 0.6 ± 0.2
PI-resistant viruses; I84V/L90M
  EC50 Fold-Change: 0.3 ± 0.1
PI-resistant viruses; mutants resistant to PIs
  activity against all tested mutants, in words: fully active
NRTI-resistant viruses; 6TAMs
  EC50 Fold-Change: 0.4 ± 0.2
NRTI-resistant viruses; K65R
  EC50 Fold-Change: 0.7 ± 0.2
NRTI-resistant viruses; M184V
  EC50 Fold-Change: 0.5 ± 0.3
NRTI-resistant viruses; mutants resistant to NRTIs
  activity against all tested mutants, in words: fully active
